Measured values from US20240190890A1, “MK2 INHIBITORS AND USES THEREOF” (Bristol-Myers Squibb Company, priority 2022, published 2024).

biological target: p38a activated, mitogen-activated protein kinase-activated protein kinase 2 (MAPKAP-K2 or MK2) enzyme (Homo sapiens (Human), UniProt P49137); assay: MK2 Omnia continuous-read kinase assay for compound potency; assay type: biochemical; details: [MK-2]=0.4 nM, [ATP]=10 μM, [ST3-Sox]=10 μM; room temperature
In short: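 Continuous Sox-peptide fluorescence read (ex360/em485) every 71 s over 2 h at room temperature. Reactions: 10 μM each of ATP (at apparent Km) and S/T3-Sox, 0.4 nM p38a-activated MK2, pH 7.5 Tris/MgCl2 buffer. Initial rates yield % inhibition and IC50; single-exponential kobs values yield apparent kinact/KI.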

p38a activated, mitogen-activated protein kinase-activated protein kinase 2 (MAPKAP-K2 or MK2) enzyme, sequence (P49137 whole entry): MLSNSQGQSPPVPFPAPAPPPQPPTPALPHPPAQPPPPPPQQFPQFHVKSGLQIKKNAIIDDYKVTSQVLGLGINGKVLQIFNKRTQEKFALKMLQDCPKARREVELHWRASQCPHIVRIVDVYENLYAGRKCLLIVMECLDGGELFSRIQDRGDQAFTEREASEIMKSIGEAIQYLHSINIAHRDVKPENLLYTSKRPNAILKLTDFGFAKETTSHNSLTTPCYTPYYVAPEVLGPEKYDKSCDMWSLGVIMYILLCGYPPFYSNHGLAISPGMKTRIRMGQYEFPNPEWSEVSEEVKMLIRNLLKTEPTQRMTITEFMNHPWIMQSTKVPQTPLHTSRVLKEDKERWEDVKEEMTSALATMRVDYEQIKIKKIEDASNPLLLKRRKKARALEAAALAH

How did the IC50 turn out when C=Cc1cnn(C)c1-c1ccc2c(ccc3sc4c(c32)NC[C@@H](C)NC4=O)n1 [Example I-146, (R)-10-methyl-3-(1-methyl-4-vinyl-1H-pyrazol-5-yl)-9,10,11,12-tetrahydro-8H-[1,4]diazepino[5′,6′:4,5]thieno[3,2-f]quinolin-8-one] was run?
The IC50 was 0.499 µM.

With C=Cc1ncc(COCC)c(-c2ccc3c(ccc4sc5c(c43)NC[C@@H](C)NC5=O)n2)n1 [Example I-5, (R)-3-(5-(ethoxymethyl)-2-vinylpyrimidin-4-yl)-10-methyl-9,10,11,12-tetrahydro-8H-[1,4]diazepino[5′,6′:4,5]thieno[3,2-f]quinolin-8-one] as the compound, how does the IC50 read?
Its IC50 is 0.007 µM.

“(R)-10-methyl-3-(2-(4-methylpiperazin-1-yl)-6-vinylpyridin-4-yl)-9,10,11,12-tetrahydro-8H-[1,4]diazepino[5′,6′:4,5]thieno[3,2-f]quinolin- [Example I-96]” was tested. Which IC50 did it give?
The IC50 was 0.01 µM.

For C=Cc1nc(C2CC2)n(-c2ccc3c(ccc4sc5c(c43)NC[C@@H](C)NC5=O)n2)n1 [Example I-248, (R)-3-(5-cyclopropyl-3-vinyl-1H-1,2,4-triazol-1-yl)-10-methyl-9,10,11,12-tetrahydro-8H-[1,4]diazepino[5′,6′:4,5]thieno[3,2-f]quinolin-8-one], which IC50 is on record?
Its IC50 is 0.303 µM.

For C#Cc1cc(-c2ccc3c(ccc4sc5c(c43)NC[C@@H](C)NC5=O)n2)c(NC)nn1 [Example I-104, (R)-3-(6-ethynyl-3-(methylamino)pyridazin-4-yl)-10-methyl-9,10,11,12-tetrahydro-8H-[1,4]diazepino[5′,6′:4,5]thieno[3,2-f]quinolin-8-one], which IC50 is on record?
The IC50 was 0.194 µM.

With C[C@@H]1CNc2c(sc3ccc4nc(-c5cc(Cl)nc(Cl)c5)ccc4c23)C(=O)N1 [Example I-68, (R)-3-(2,6-dichloropyridin-4-yl)-10-methyl-9,10,11,12-tetrahydro-8H-[1,4]diazepino[5′,6′:4,5]thieno[3,2-f]quinolin-8-one] as the compound, how does the IC50 read?
Its IC50 is 0.472 µM.

C#Cc1cc(-c2ccc3c(ccc4sc5c(c43)NC[C@@H](C)NC5=O)n2)c(Cl)cn1 [Example I-144, (R)-3-(5-chloro-2-ethynylpyridin-4-yl)-10-methyl-9,10,11,12-tetrahydro-8H-[1,4]diazepino[5′,6′:4,5]thieno[3,2-f]quinolin-8-one] was tested. Which IC50 did it give?
Its IC50 is 0.678 µM.

With C=Cc1cc(-c2ccc3c(ccc4sc5c(c43)NC[C@@H](C)NC5=O)n2)nc(COC)n1 [Example I-13, (R)-3-(2-(methoxymethyl)-6-vinylpyrimidin-4-yl)-10-methyl-9,10,11,12-tetrahydro-8H-[1,4]diazepino[5′,6′:4,5]thieno[3,2-f]quinolin-8-one] as the compound, how does the IC50 read?
The IC50 was 0.001 µM.

Which IC50 does the source give for C[C@@H]1CNc2c(sc3ccc4nc(-c5cc(C#CC(C)(C)N)nc(Cl)n5)ccc4c23)C(=O)N1 [Example I-63, (R)-3-(6-(3-amino-3-methylbut-1-yn-1-yl)-2-chloropyrimidin-4-yl)-10-methyl-9,10,11,12-tetrahydro-8H-[1,4]diazepino[5′,6′:4,5]thieno[3,2-f]quinolin-8-one] here?
The IC50 was 0.145 µM.

How did the IC50 turn out when C=Cc1cc(-c2ccc3c(ccc4sc5c(c43)NC[C@@H](C)NC5=O)n2)cc(N2CCC(OC)CC2)n1 [Example I-158, (R)-3-(2-(4-methoxypiperidin-1-yl)-6-vinylpyridin-4-yl)-10-methyl-9,10,11,12-tetrahydro-8H-[1,4]diazepino[5′,6′:4,5]thieno[3,2-f]quinolin-8-one] was run?
Its IC50 is 0.038 µM.

C=Cc1nc(CO)cc(-c2ccc3c(ccc4sc5c(c43)NC[C@@H](C)NC5=O)n2)n1 [Example I-85, (R)-3-(6-(hydroxymethyl)-2-vinylpyrimidin-4-yl)-10-methyl-9,10,11,12-tetrahydro-8H-[1,4]diazepino[5′,6′:4,5]thieno[3,2-f]quinolin-8-one] was tested. Which IC50 did it give?
Its IC50 is 0.011 µM.

C#Cc1cc(-c2ccc3c(ccc4sc5c(c43)NC[C@@H](C)NC5=O)n2)cc(CN2CCC(OC(F)(F)F)CC2)n1 [Example I-190, (R)-3-(2-ethynyl-6-((4-(trifluoromethoxy)piperidin-1-yl)methyl)pyridin-4-yl)-10-methyl-9,10,11,12-tetrahydro-8H-[1,4]diazepino[5′,6′:4,5]thieno[3,2-f]quinolin-8-one] was tested. Which IC50 did it give?
The IC50 was 0.402 µM.

For C=Cc1ncc(-c2ccc3c(ccc4sc5c(c43)NC[C@@H](C)NC5=O)n2)s1 [Example I-209, (R)-10-methyl-3-(2-vinylthiazol-5-yl)-9,10,11,12-tetrahydro-8H-[1,4]diazepino[5′,6′:4,5]thieno[3,2-f]quinolin-8-one], which IC50 is on record?
The IC50 was 0.015 µM.

Which IC50 does the source give for C=Cc1nnc(C)n1-c1ccc2c(ccc3sc4c(c32)NC[C@@H](C)NC4=O)n1 [Example I-223, (R)-10-methyl-3-(3-methyl-5-vinyl-4H-1,2,4-triazol-4-yl)-9,10,11,12-tetrahydro-8H-[1,4]diazepino[5′,6′:4,5]thieno[3,2-f]quinolin-8-one] here?
The IC50 was 1 µM.

With C=Cc1ncc(F)c(-c2ccc3c(ccc4sc5c(c43)NC[C@@H](C)NC5=O)n2)n1 [Example I-2, (R)-3-(5-fluoro-2-vinylpyrimidin-4-yl)-10-methyl-9,10,11,12-tetrahydro-8H-[1,4]diazepino[5′,6′:4,5]thieno[3,2-f]quinolin-8-one] as the compound, how does the IC50 read?
Its IC50 is 0.133 µM.

Which IC50 does the source give for C#Cc1cc(-c2ccc3c(ccc4sc5c(c43)NC[C@@H](C)NC5=O)n2)cc(CN2CCOCC2)n1 [Example I-169, (R)-3-(2-ethynyl-6-(morpholinomethyl)pyridin-4-yl)-10-methyl-9,10,11,12-tetrahydro-8H-[1,4]diazepino[5′,6′:4,5]thieno[3,2-f]quinolin-8-one] here?
The IC50 was 0.039 µM.

For C=Cc1cc(-c2ccc3c(ccc4sc5c(c43)NC[C@@H](C)NC5=O)n2)cc(N2CCC2)n1 [Example I-179, (R)-3-(2-(azetidin-1-yl)-6-vinylpyridin-4-yl)-10-methyl-9,10,11,12-tetrahydro-8H-[1,4]diazepino[5′,6′:4,5]thieno[3,2-f]quinolin-8-one], which IC50 is on record?
Its IC50 is 0.011 µM.

For C=Cc1ncc(COC2CCOCC2)c(-c2ccc3c(ccc4sc5c(c43)NC[C@@H](C)NC5=O)n2)n1 [Example I-25, (R)-10-methyl-3-(5-(((tetrahydro-2H-pyran-4-yl)oxy)methyl)-2-vinylpyrimidin-4-yl)-9,10,11,12-tetrahydro-8H-[1,4]diazepino[5′,6′:4,5]thieno[3,2-f]quinolin-8-one], which IC50 is on record?
Its IC50 is 0.043 µM.

How did the IC50 turn out when C[C@@H]1CNc2c(sc3ccc4nc(-c5cc(N6CCN(C)CC6)nc(Cl)n5)ccc4c23)C(=O)N1 [Example I-16, (R)-3-(2-chloro-6-(4-methylpiperazin-1-yl)pyrimidin-4-yl)-10-methyl-9,10,11,12-tetrahydro-8H-[1,4]diazepino[5′,6′:4,5]thieno[3,2-f]quinolin-8-one] was run?
The IC50 was 0.026 µM.

C=Cc1cc(-c2ccc3c(ccc4sc5c(c43)NC[C@@H](C)NC5=O)n2)cc(N2CC3(COC3)C2)n1 [Example I-238, (R)-3-(2-(2-oxa-6-azaspiro[3.3]heptan-6-yl)-6-vinylpyridin-4-yl)-10-methyl-9,10,11,12-tetrahydro-8H-[1,4]diazepino[5′,6′:4,5]thieno[3,2-f]quinolin-8-one] was tested. Which IC50 did it give?
Its IC50 is 0.006 µM.

Which IC50 does the source give for C[C@@H]1CNc2c(sc3ccc4nc(-n5c(Br)nc(Cl)c5Cl)ccc4c23)C(=O)N1 [Example I-250, (R)-3-(2-bromo-4,5-dichloro-1H-imidazol-1-yl)-10-methyl-9,10,11,12-tetrahydro-8H-[1,4]diazepino[5′,6′:4,5]thieno[3,2-f]quinolin-8-one] here?
The IC50 was 0.58 µM.
